Assay results published in US20070049564A1 (Wyeth, priority 2005, published 2007).
Converted amounts (≈) assume the structure as drawn. Like-named read-outs stand apart in the source and are kept apart here.

Legend:
Staph. = experiment: Range of MIC for Staph. strains, including MRSA; settings: Staphylococcus aureus, MRSA
E. coli = experiment: Range of MIC for E. coli strains; settings: Escherichia coli
[1] = read-out: Range of MIC, Staph (Mouse Serum)
[2] = read-out: Range of MIC, Staph (Water)
[3] = 20 h, read-out: Range of MIC, E. coli (Mouse Serum)
[4] = read-out: Range of MIC, E. coli (Water)

SMILES | MIC (Staph.; [1]) [µg/mL] | MIC (Staph.; [2]) [µg/mL] | MIC (E. coli; [3]) [µg/mL] | MIC (E. coli; [4]) [µg/mL]
CCC(CC)C(=O)OCOC(=O)Nc1cc(N(C)C)c2c(c1O)C(=O)C1=C(O)[C@]3(O)C(=O)C(C(N)=O)=C(O)[C@@H](N(C)C)[C@@H]3C[C@@H]1C2 [Example 85, [({[(5aR,6aS,7S,10aS)-9-(aminocarbonyl)-4,7-bis(dimethylamino)-1,8,10a,11-tetrahydroxy-10,12-dioxo-5,5a,6,6a,7,10,10a,12-octahydrotetracen-2-yl]amino}carbonyl)oxy]methyl 2-ethylbutanoate] | 1 to 2 (≈ 1.55 to 3.1 µM) | 4 to 16 (≈ 6.2 to 24.8 µM) | 1 to 2 (≈ 1.55 to 3.1 µM) | > 64
CN(C)c1cc(NC(=O)OCOC(=O)CC2CCCC2)c(O)c2c1C[C@H]1C[C@H]3[C@H](N(C)C)C(O)=C(C(N)=O)C(=O)[C@@]3(O)C(O)=C1C2=O [Example 86, [({[(5aR,6aS,7S,10aS)-9-(aminocarbonyl)-4,7-bis(dimethylamino)-1,8,10a,11-tetrahydroxy-10,12-dioxo-5,5a,6,6a,7,10,10a,12-octahydrotetracen-2-yl]amino}carbonyl)oxy]methyl cyclopentylacetate] | 2 to 8 (≈ 3.05 to 12.2 µM) | 8 (≈ 12.2 µM) | 8 to 16 (≈ 12.2 to 24.4 µM) | > 64
CN(C)c1cc(NC(=O)CN(C(=O)OCOC(=O)c2cccnc2)C(C)(C)C)c(O)c2c1C[C@H]1C[C@H]3[C@H](N(C)C)C(O)=C(C(N)=O)C(=O)[C@@]3(O)C(O)=C1C2=O [Example 88, ({[(2-{[(5aR,6aS,7S,10aS)-9-(aminocarbonyl)-4,7-bis(dimethylamino)-1,8,10a,11-tetrahydroxy-10,12-dioxo-5,5a,6,6a,7,10,10a,12-octahydrotetracen-2-yl]amino}-2-oxoethyl)(tert-butyl)amino]carbonyl}oxy)methyl nicotinate] | 1 to 4 (≈ 1.31 to 5.23 µM) | 4 to 16 (≈ 5.23 to 20.9 µM) | 0.5 to 2 (≈ 0.654 to 2.62 µM) | 8 to 16 (≈ 10.5 to 20.9 µM)
CN(C)c1cc(NC(=O)CN(C(=O)OCOC(=O)c2ccncc2)C(C)(C)C)c(O)c2c1C[C@H]1C[C@H]3[C@H](N(C)C)C(O)=C(C(N)=O)C(=O)[C@@]3(O)C(O)=C1C2=O [Example 89, ({[(2-{[(5aR,6aS,7S,10aS)-9-(aminocarbonyl)-4,7-bis(dimethylamino)-1,8,10a,11-tetrahydroxy-10,12-dioxo-5,5a,6,6a,7,10,10a,12-octahydrotetracen-2-yl]amino}-2-oxoethyl)(tert-butyl)amino]carbonyl}oxy)methyl isonicotinate] | 0.5 to 1 (≈ 0.654 to 1.31 µM) | 1 to 4 (≈ 1.31 to 5.23 µM) | 0.25 to 1 (≈ 0.327 to 1.31 µM) | 4 to 8 (≈ 5.23 to 10.5 µM)
CN(C)c1cc(NC(=O)CN(C(=O)OCOC(=O)c2ccccc2C(F)(F)F)C(C)(C)C)c(O)c2c1C[C@H]1C[C@H]3[C@H](N(C)C)C(O)=C(C(N)=O)C(=O)[C@@]3(O)C(O)=C1C2=O [Example 92] | 4 (≈ 4.81 µM) | 8 to 32 (≈ 9.62 to 38.5 µM) | 4 to 8 (≈ 4.81 to 9.62 µM) | > 64
CN(C)c1cc(NC(=O)CN(C(=O)OCOC(=O)c2ccccc2-c2ccccc2)C(C)(C)C)c(O)c2c1C[C@H]1C[C@H]3[C@H](N(C)C)C(O)=C(C(N)=O)C(=O)[C@@]3(O)C(O)=C1C2=O [Example 94, ({[(2-{[(5aR,6aS,7S,10aS)-9-(aminocarbonyl)-4,7-bis(dimethylamino)-1,8,10a,11-tetrahydroxy-10,12-dioxo-5,5a,6,6a,7,10,10a,12-octahydrotetracen-2-yl]amino}-2-oxoethyl)(tert-butyl)amino]carbonyl}oxy)methyl 1,1′-biphenyl-2-carboxylate] | 16 to 32 (≈ 19 to 38.1 µM) | > 64 | 32 to 64 (≈ 38.1 to 76.2 µM) | > 64
Cc1cc(C)c(C(=O)OCOC(=O)N(CC(=O)Nc2cc(N(C)C)c3c(c2O)C(=O)C2=C(O)[C@]4(O)C(=O)C(C(N)=O)=C(O)[C@@H](N(C)C)[C@@H]4C[C@@H]2C3)C(C)(C)C)c(C)c1 [Example 95, ({[(2-{[(5aR,6aS,7S,10aS)-9-(aminocarbonyl)-4,7-bis(dimethylamino)-1,8,10a,11-tetrahydroxy-10,12-dioxo-5,5a,6,6a,7,10,10a,12-octahydrotetracen-2-yl]amino}-2-oxoethyl)(tert-butyl)amino]carbonyl}oxy)methyl 2,4,6-trimethylbenzoate] | – | > 64 | > 64 | > 64
COc1cc(C(=O)OCOC(=O)N(CC(=O)Nc2cc(N(C)C)c3c(c2O)C(=O)C2=C(O)[C@]4(O)C(=O)C(C(N)=O)=C(O)[C@@H](N(C)C)[C@@H]4C[C@@H]2C3)C(C)(C)C)cc(OC)c1OC [Example 97, ({[(2-{[(5aR,6aS,7S,10aS)-9-(aminocarbonyl)-4,7-bis(dimethylamino)-1,8,10a,11-tetrahydroxy-10,12-dioxo-5,5a,6,6a,7,10,10a,12-octahydrotetracen-2-yl]amino}-2-oxoethyl)(tert-butyl)amino]carbonyl}oxy)methyl 3,4,5-trimethoxybenzoate] | 1 to 4 (≈ 1.17 to 4.68 µM) | 4 to 8 (≈ 4.68 to 9.37 µM) | 4 to 8 (≈ 4.68 to 9.37 µM) | > 64
COc1cc(OC)cc(C(=O)OCOC(=O)N(CC(=O)Nc2cc(N(C)C)c3c(c2O)C(=O)C2=C(O)[C@]4(O)C(=O)C(C(N)=O)=C(O)[C@@H](N(C)C)[C@@H]4C[C@@H]2C3)C(C)(C)C)c1 [Example 98, ({[(2-{[(5aR,6aS,7S,10aS)-9-(aminocarbonyl)-4,7-bis(dimethylamino)-1,8,10a,11-tetrahydroxy-10,12-dioxo-5,5a,6,6a,7,10,10a,12-octahydrotetracen-2-yl]amino}-2-oxoethyl)(tert-butyl)amino]carbonyl}oxy)methyl 3,5-dimethoxybenzoate] | 0.5 to 2 (≈ 0.607 to 2.43 µM) | 2 to 4 (≈ 2.43 to 4.86 µM) | 1 to 4 (≈ 1.21 to 4.86 µM) | > 64
CN(C)c1cc(NC(=O)CN(C(=O)OCOC(=O)/C=C/c2ccccc2)C(C)(C)C)c(O)c2c1C[C@H]1C[C@H]3[C@H](N(C)C)C(O)=C(C(N)=O)C(=O)[C@@]3(O)C(O)=C1C2=O [Example 99, ({[(2-{[(5aR,6aS,7S,10aS)-9-(aminocarbonyl)-4,7-bis(dimethylamino)-1,8,10a,11-tetrahydroxy-10,12-dioxo-5,5a,6,6a,7,10,10a,12-octahydrotetracen-2-yl]amino}-2-oxoethyl)(tert-butyl)amino]carbonyl}oxy)methyl (2E)-3-phenylprop-2-enoate] | 0.5 to 2 (≈ 0.633 to 2.53 µM) | 2 to 4 (≈ 2.53 to 5.06 µM) | 1 to 2 (≈ 1.27 to 2.53 µM) | > 64
Cc1c(C(=O)OCOC(=O)N(CC(=O)Nc2cc(N(C)C)c3c(c2O)C(=O)C2=C(O)[C@]4(O)C(=O)C(C(N)=O)=C(O)[C@@H](N(C)C)[C@@H]4C[C@@H]2C3)C(C)(C)C)oc2ccccc12 [Example 100, ({[(2-{[(5aR,6aS,7S,10aS)-9-(aminocarbonyl)-4,7-bis(dimethylamino)-1,8,10a,11-tetrahydroxy-10,12-dioxo-5,5a,6,6a,7,10,10a,12-octahydrotetracen-2-yl]amino}-2-oxoethyl)(tert-butyl)amino]carbonyl}oxy)methyl 3-methyl-1-benzofuran-2-carboxylate] | 0.5 to 1 (≈ 0.611 to 1.22 µM) | 2 to 4 (≈ 2.45 to 4.89 µM) | 2 (≈ 2.45 µM) | –
CN(C)c1cc(NC(=O)CN(C(=O)OCOC(=O)Cc2cc(C(F)(F)F)cc(C(F)(F)F)c2)C(C)(C)C)c(O)c2c1C[C@H]1C[C@H]3[C@H](N(C)C)C(O)=C(C(N)=O)C(=O)[C@@]3(O)C(O)=C1C2=O [Example 101, ({[(2-{[(5aR,6aS,7S,10aS)-9-(aminocarbonyl)-4,7-bis(dimethylamino)-1,8,10a,11-tetrahydroxy-10,12-dioxo-5,5a,6,6a,7,10,10a,12-octahydrotetracen-2-yl]amino}-2-oxoethyl)(tert-butyl)amino]carbonyl}oxy)methyl [3,5-bis(trifluoromethyl)phenyl]acetate] | 0.5 to 2 (≈ 0.547 to 2.19 µM) | 4 to 16 (≈ 4.38 to 17.5 µM) | 1 (≈ 1.09 µM) | 16 to 32 (≈ 17.5 to 35 µM)
CN(C)c1cc(NC(=O)CN(C(=O)OCOC(=O)c2ccccc2CCc2ccccc2)C(C)(C)C)c(O)c2c1C[C@H]1C[C@H]3[C@H](N(C)C)C(O)=C(C(N)=O)C(=O)[C@@]3(O)C(O)=C1C2=O [Example 103, ({[(2-{[(5aR,6aS,7S,10aS)-9-(aminocarbonyl)-4,7-bis(dimethylamino)-1,8,10a,11-tetrahydroxy-10,12-dioxo-5,5a,6,6a,7,10,10a,12-octahydrotetracen-2-yl]amino}-2-oxoethyl)(tert-butyl)amino]carbonyl}oxy)methyl 2-(2-phenylethyl)benzoate] | 8 to 16 (≈ 9.22 to 18.4 µM) | – | 8 to 16 (≈ 9.22 to 18.4 µM) | > 64
CCCCCCCCCCCCOc1ccc(C(=O)OCOC(=O)N(CC(=O)Nc2cc(N(C)C)c3c(c2O)C(=O)C2=C(O)[C@]4(O)C(=O)C(C(N)=O)=C(O)[C@@H](N(C)C)[C@@H]4C[C@@H]2C3)C(C)(C)C)cc1 [Example 104] | 16 to 64 (≈ 16.9 to 67.5 µM) | – | 8 to 16 (≈ 8.44 to 16.9 µM) | > 64
CC(=O)Nc1ccc(C(=O)OCOC(=O)N(CC(=O)Nc2cc(N(C)C)c3c(c2O)C(=O)C2=C(O)[C@]4(O)C(=O)C(C(N)=O)=C(O)[C@@H](N(C)C)[C@@H]4C[C@@H]2C3)C(C)(C)C)cc1 [Example 105] | 1 to 2 (≈ 1.22 to 2.44 µM) | – | 2 (≈ 2.44 µM) | > 64
CN(C)c1cc(NC(=O)CN(C(=O)OCOC(=O)c2c3ccccc3cc3ccccc23)C(C)(C)C)c(O)c2c1C[C@H]1C[C@H]3[C@H](N(C)C)C(O)=C(C(N)=O)C(=O)[C@@]3(O)C(O)=C1C2=O [Example 106, ({[(2-{[(5aR,6aS,7S,10aS)-9-(aminocarbonyl)-4,7-bis(dimethylamino)-1,8,10a,11-tetrahydroxy-10,12-dioxo-5,5a,6,6a,7,10,10a,12-octahydrotetracen-2-yl]amino}-2-oxoethyl)(tert-butyl)amino]carbonyl}oxy)methyl anthracene-9-carboxylate] | > 64 | > 64 | > 64 | > 64
